{"source": "paper PMC6803640", "about": "“Oligomeric state, hydrodynamic properties and target recognition of human Calcium and Integrin Binding protein 2 (CIB2)” (Scientific Reports, 2019)", "molecules": {"B1": {"name": "CIB2: Recombinant human CIB2, Ca^2+ and Mg^2+-binding protein (protein)", "chain": "MGNKQTIFTEEQLDNYQDCTFFNKKDILKLHSRFYELAPNLVPMDYRKSPIVHVPMSLIIQMPELRENPFKERIVAAFSEDGEGNLTFNDFVDMFSVLCESAPRELKANYAFKIYDFNTDNFICKEDLELTLARLTKSELDEEEVVLVCDKVIEEADLDGDGKLGFADFEDMIAKAPDFLSTFHIRI", "modifications": "left off: His tag, end not stated, cleaved"}}, "key": {"[1]": {"molecular_target": "T1, human CIB2 (Homo sapiens, UniProt O75838)", "T1 construct": "made in house", "T1 sequence (O75838 1-187)": "B1 chain", "experiment": "SPR interaction of α7B peptides with immobilized CIB2", "type": "binding", "settings": "for ka2 association rate constant, CIB2-α7B_M-CIB2 complex / koff / Kd: His-CIB2; for ka2 association rate constant, CIB2-α7B_M-CIB2 complex / kon / koff: average ± SEM; for kon: His-CIB2 on His-cap chip, peptide 230 nM–30 μM, read-out: ka1 association rate constant, CIB2-α7B_M complex; for Kd: ratio kd1/ka1, read-out: KD^app1 apparent affinity for the first binding event", "text": "SPR was also used to study quantitatively the interaction of CIB2 with one of its established targets, namely the cytoplasmic domain of integrin α7B[3],[7]. Three different peptides were used in the interaction experiments. A peptide corresponding to the membrane proximal segment of the cytoplasmic domain of α7B integrin (α7B_M), another peptide with the same amino acid content, but randomized sequence (α7B_Scrb) and a peptide covering the C-terminal region of the cytoplasmic domain of α7B integrin (α7B_C). Three different approaches were used. In a first approach, His-tagged CIB2 was initially coupled to the surface of a His-cap sensor chip (see Methods), thus ensuring homogeneous site-specific orientation, and then blocked via standard amine coupling. […] The minor differences in the spectra at the level of the phenylalanine band can be ascribed to the TEV-protease recognition site (ENLYFQ), uncleaved in the His-tagged protein. […] In a third approach, we used the same low levels of CIB2 immobilization via amine coupling described in the experiments to probe CIB2 dimerization (100–200 RU) and flowed the three peptides.\nThe second approach (direct peptide immobilization) led to very low signals and unreproducible results and was not pursued any further. […] In spite of such differences, which might reflect both the heterogeneity of the surface and the different chemistry of immobilization, interaction results were consistent with one another. […] It should be noted that both Huang et al.[7] and Häger et al.[3] used peptides from mouse integrin, while we used the corresponding human sequences, which in the case of α7B_C lacks the tryptophan residue present in the mouse sequence. It is not uncommon that fluorescence spectroscopy interaction studies based on the peptide intrinsic fluorescence (CIB2 has no tryptophan residue) reveal some non-specific binding, especially when a highly hydrophobic protein such as CIB2 is the ligand. […] It cannot be excluded that a similar phenomenon occurred for murine α7B_C in the work by Häger et al.[3]. Our present results, based on accurate, label-free interaction studies clearly identify the region covered by α7B_M as the preferential binding site of CIB2 with α7B integrin.\nSPR titrations of α7B_M over homogeneously coupled CIB2 (approach 1) gave very reproducible results and were performed both in the presence of 1 mM Mg^2+ and in the co-presence of 1 mM Mg^2+ and 2 mM Ca^2+. Peptide concentration was varied in the 230 nM–30 μM range. As anticipated, sensorgrams could not fit to a 1:1 binding model, and the kinetic model that better fit the data was a bivalent analyte model (see Methods), in which one α7B_M peptide could bind to two CIB2 molecules. According to this scheme, binding of the peptide to the first CIB2 molecule would direct the binding to the second one, thus resulting in two sets of kinetic constants.\nDetails of the protein and peptide immobilization procedures and experimental settings are elucidated in the Supplementary Information.\nKinetic data were fitted according to a bivalent analyte model, were a CIB2 monomer (L) can bind an α7B_M peptide (A), and the resulting complex (AL) can bind to a second CIB2 molecule (AL2), with all processes being possibly reversible, as follows: A+L→ka1ALAL→kd1A+LAL+L→ka2AL2AL2→kd2AL+L […]"}, "[2]": {"test_system": "CIB2", "experiment": "Near-UV circular dichroism", "type": "physicochemical, human", "settings": "37 °C", "protocol": "CIB2 tertiary structure was investigated by using a Jasco J-710 spectropolarimeter equipped with a Peltier type cell holder as previously described. Briefly: near-UV (250–320 nm) CD spectra of 20 μM of sole CIB2 or CIB2/α7B_M complexes (1:1 and 1:2 ratios) were collected in the presence of 500 μM EGTA and after sequential additions of 1 mM Mg^2+ and 2 mM free Ca^2+. A 1 cm quartz cuvette was used, temperature was set at 37 °C, integration time and data pitch were set to 4 s and 1 nm, respectively. Each spectrum represents the average of 5 accumulations. […]\nFigure S4: Structural comparison of His-CIB2 (A) and CIB2 (B). Near-UV CD spectra (250-320 nm) of 20-30 µM CIB2 were collected at 37°C in a quartz cuvette with 1 cm length path. Sequential additions of 500 µM EGTA (black), 1 mM Mg2+ (blue) and 2 mM Ca2+ (red) were performed. Near-UV CD spectra of the buffer (20 mM HEPES pH 7.5, 150 mM KCl, 1 mM DTT) was considered as blank and subtracted. Each spectrum represents the mean of 5 accumulations. Data were normalized according to the protein concentration and the number of residues (Molar Residue Ellipticity, MRE).\nFigure S5: Near-UV CD spectra of CIB2 in the presence of different stoichiometric ratios of alpha7B_M peptide. Near-UV CD spectra (250-320nm) of 20 μM CIB2 in the absence of peptide (black lines) and in the presence of two different protein/peptide ratios (1:1 blue lines; 1:2 red lines) collected at 37°C in the presence of 500 μM EGTA (A) and after sequential additions of 1 mM Mg2+ (B) and 2 mM free Ca2+ (C). The spectrum of alpha7B_M peptide in the absence of CIB2 is shown in dashed grey lines. […]"}, "[3]": {"settings": "cited from earlier work", "text": "Moreover, DLS experiments performed with the samples collected immediately after elution from the SEC column measured a relatively high hydrodynamic diameter (d^Mg = 8.43 nm and d^Ca = 8.18 nm), which was also interpreted as an evidence of a dimeric protein[8]. […] This shoulder (here denominated A1) was collected together with the main peak (A2) in our previous work[8]. In contrast, the two fractions were separately collected and analyzed in the present study."}}, "note": "Several values for one entry are separate records, joined by “and”; a condition that tells them apart may be missing. Identical values can stand only once. Like-named read-outs stand apart in the source and are kept apart here. Where a SMILES comes first, the peptide text is derived from it.", "data": [{"molecule": "CSCC[C@H](NC(=O)[C@H](CCCCN)NC(=O)[C@H](Cc1c[nH]c2ccccc12)NC(=O)[C@H](CC(C)C)NC(=O)[C@H](CC(C)C)NC(=O)[C@H](CC(C)C)NC(C)=O)C(=O)NCC(=O)N[C@@H](Cc1ccccc1)C(=O)N[C@@H](Cc1ccccc1)C(=O)N[C@@H](CCCCN)C(=O)N[C@@H](CCCNC(=N)N)C(=O)N[C@@H](C)C(=O)N[C@@H](CCCCN)C(=O)N[C@@H](Cc1c[nH]cn1)C(=O)N1CCC[C@H]1C(=O)N[C@@H](CCC(=O)O)C(N)=O", "note": "[α7B_M] (Ac-LLLWKMGFFKRAKHPE-NH2)", "values": [{"measurement": "SPR interaction with CIB2", "setting": "[1]; His-CIB2 capture (7.5 µM peptide, or 230 nM–30 μM) and amine-coupled untagged CIB2 (7.5–30 µM), 1 mM Mg^2+, 2 mM Ca^2+, experiments repeated 4 times", "value": "binds to CIB2 significantly stronger than the control peptide α7B_Scrb"}, {"measurement": "first-event affinity in Mg^2+ + Ca^2+ compared to Mg^2+ alone", "setting": "[1]; KD^app1", "value": "roughly half affinity"}, {"measurement": "faster dissociation of the second CIB2 molecule in co-presence of Mg^2+ and Ca^2+", "setting": "[1]; Mg^2+ + Ca^2+ vs Mg^2+", "value": 2.5, "unit": "times"}, {"measurement": "affinity for CIB2", "setting": "[1]; SPR", "value": "relatively low affinity interaction"}, {"measurement": "ka2 association rate constant, CIB2-α7B_M-CIB2 complex", "setting": "[1]; bivalent analyte model, 1 mM Mg^2+ 2 mM Ca^2+, pH 7.5, N = 15", "value": "(4.2 ± 0.5) × 10^−4 RU^−1s^−1"}, {"measurement": "ka2 association rate constant, CIB2-α7B_M-CIB2 complex", "setting": "[1]; bivalent analyte model, 1 mM Mg^2+, 230 nM–30 μM, pH 7.5, N = 16", "value": "(1.9 ± 0.4) × 10^−3 RU^−1s^−1"}, {"measurement": "kon", "setting": "[1]; bivalent analyte model, 1 mM Mg^2+, 20 mM HEPES pH 7.5, 150 mM KCl, 1 mM DTT, 50 µM EDTA, 0.005% Tween, N = 16", "value": 31000, "unit": "M⁻¹ s⁻¹"}, {"measurement": "association of first CIB2 faster in sole Mg^2+ vs co-presence of Ca^2+ (fold)", "setting": "[1]; first binding event, Mg^2+ vs Mg^2+ + Ca^2+", "value": 2, "unit": "fold"}, {"measurement": "dissociation from CIB2", "setting": "[1]; followed for 240 s, flow rate 20 μl min−1", "value": "complete protein-peptide dissociation"}, {"measurement": "koff", "setting": "[1]; pH 7.5, bivalent analyte model, 1 mM Mg^2+ 2 mM Ca^2+, pH 7.5, N = 15, read-out: kd1 dissociation rate constant, CIB2-α7B_M complex", "value": 0.4, "unit": "s⁻¹"}, {"measurement": "koff", "setting": "[1]; pH 7.5, bivalent analyte model, 1 mM Mg^2+ 2 mM Ca^2+, pH 7.5, N = 15, read-out: kd2 dissociation rate constant, CIB2-α7B_M-CIB2 complex", "value": 0.053, "unit": "s⁻¹"}, {"measurement": "koff", "setting": "[1]; pH 7.5, bivalent analyte model, 1 mM Mg^2+, 230 nM–30 μM, pH 7.5, N = 16, read-out: kd1 dissociation rate constant, CIB2-α7B_M complex", "value": 0.36, "unit": "s⁻¹"}, {"measurement": "koff", "setting": "[1]; pH 7.5, bivalent analyte model, 1 mM Mg^2+, 230 nM–30 μM, pH 7.5, N = 16, read-out: kd2 dissociation rate constant, CIB2-α7B_M-CIB2 complex", "value": 0.02, "unit": "s⁻¹"}, {"measurement": "kon", "setting": "[1]; pH 7.5, bivalent analyte model, 1 mM Mg^2+ 2 mM Ca^2+, pH 7.5, N = 15", "value": 16000, "unit": "M⁻¹ s⁻¹"}, {"measurement": "Kd", "setting": "[1]; 1 mM Mg^2+ 2 mM Ca^2+, pH 7.5, N = 15", "value": "25 ± 5", "unit": "µM"}, {"measurement": "Kd", "setting": "[1]; 1 mM Mg^2+, pH 7.5, N = 16", "value": "11.6 ± 1.8", "unit": "µM"}, {"measurement": "association of second CIB2 faster in sole Mg^2+ vs co-presence of Ca^2+ (fold)", "setting": "[1]; second binding event, Mg^2+ vs Mg^2+ + Ca^2+", "value": 5, "unit": "fold"}, {"measurement": "near-UV CD, effect of peptide on apo-CIB2", "setting": "[2]; 20 μM CIB2, 500 μM EGTA, 1:1 and 2:1 peptide:protein", "value": "finer spectrum in the phenylalanine and tyrosine bands"}, {"measurement": "near-UV CD, effect of peptide on cation-bound CIB2", "setting": "[2]; 20 μM CIB2, 1 mM Mg^2+ and co-presence of 2 mM Ca^2+, 1:1 and 2:1 peptide:protein", "value": "the intensity of the resulting spectrum was lower compared to that of CIB2 without the peptide"}, {"measurement": "near-UV CD, structure of isolated peptide", "setting": "[2]; 500 μM EGTA, 1 mM Mg^2+, 2 mM Ca^2+", "value": "unfolded in all the tested cases"}, {"measurement": "near-UV CD, tryptophan region", "setting": "[2]; incubation of CIB2 with peptide", "value": "no clear signal was visible"}]}, {"molecule": "B1", "values": [{"measurement": "hydrodynamic diameter d^Ca", "setting": "[3]; Ca^2+, collected immediately after SEC", "value": 8.18, "unit": "nm"}, {"measurement": "hydrodynamic diameter d^Mg", "setting": "[3]; Mg^2+, A1 and A2 collected in one sample", "value": "8.43 nm and 8.4 nm"}]}]}
